US10039839B2, “Compounds that participate in cooperative binding and uses thereof” (Warp Drive Bio, Inc., priority 2015, dated 2018)
Where two headings read alike, the source gives them in different places. Square brackets hold non-standard residues; d marks the D form. Peptide text beside a SMILES is read from it. MeBmt = C/C=C/C[C@@H](C)[C@@H](O)[C@H](NC)C(=O)O; NMeY = CN[C@@H](Cc1ccc(O)cc1)C(=O)O; NMeF = CN[C@@H](Cc1ccccc1)C(=O)O; NMeI = CC[C@H](C)[C@H](NC)C(=O)O; NMeT = CN[C@H](C(=O)O)[C@@H](C)O; NMeL = CN[C@@H](CC(C)C)C(=O)O; Tle = CC(C)(C)[C@H](N)C(=O)O; NMeNva = CCC[C@H](NC)C(=O)O; NMeV = CN[C@H](C(=O)O)C(C)C; NMeA = CN[C@@H](C)C(=O)O; dNMeA = CN[C@H](C)C(=O)O; Abu = CC[C@H](N)C(=O)O; Sar = CNCC(=O)O

Columns and labels:
Cyclophilin A = molecular target: T1, Cyclophilin A (Homo sapiens, UniProt P62937); test: biochemical; format: binding; details: for IC50: read-out: IC50 value of CsA binding to Cyclophilin A
T1 construct: made in house
T1 sequence (P62937 whole entry, species assumed): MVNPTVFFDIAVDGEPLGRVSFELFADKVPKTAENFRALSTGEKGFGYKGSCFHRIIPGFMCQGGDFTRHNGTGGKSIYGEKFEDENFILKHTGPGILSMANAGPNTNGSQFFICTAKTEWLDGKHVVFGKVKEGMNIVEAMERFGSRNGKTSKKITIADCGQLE
Experimental: This protocol utilizes Perkin Elmers AlphaLISA technology platform to detect cyclosporine analogues by measuring the inhibition of binding of biotinylated Cyclosporin A to FLAG tagged Cyclophilin A.
Add 20 uL of 6 nM Biotinylated CsA working stock to each well of the 96-well plate. Add 1 uL of test compound (100% DMSO) to each well of the plate using the Janus MTD head and P20 tips (except control wells). Add 1 uL of DMSO to negative control wells and 1 uL of 500 uM Cyclosporin A solution to positive control wells. In the dark, add 20 uL of combined Donor/Acceptor beads to each well. Incubate in the dark for 30 minutes at room temperature. […] Incubate in the dark for 60 minutes at room temperature.

FKBP12 = FKBP12 (Homo sapiens, UniProt P62942); test: AlphaLISA: inhibition of binding of biotinylated FK506 to FLAG tagged FKBP12; design: made in house
FKBP12, sequence (P62942 whole entry, species assumed): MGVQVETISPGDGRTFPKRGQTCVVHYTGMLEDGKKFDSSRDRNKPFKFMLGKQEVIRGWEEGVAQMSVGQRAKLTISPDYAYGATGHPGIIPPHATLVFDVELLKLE
Experimental: This protocol utilizes Perkin Elmers AlphaLISA technology platform to detect FKBP binders by measuring the inhibition of binding of biotinylated FK506 to FLAG tagged FKBP12.
Add 20 uL of 12.5 nM FKBP-FLAG working stock to each well of the 96-well plate. Add 1 uL of test compound (100% DMSO) to each well of the plate using the Janus MTD head and P20 tips (except control wells). Add 1 uL of DMSO to negative control wells and 1 uL of 50 uM FK506 solution to positive control wells. In the dark, add 20 uL of combined Donor/Acceptor beads to each well. Incubate in the dark for 30 minutes at room temperature. In the dark, add 10 uL of 5 nM biotinylated FK506 working stock to each well. Incubate in the dark for 60 minutes at room temperature. Protect plate from light until reading on Biotek Synergy2 Plate Reader; Alphalisa 96-well protocol (680 excitation/615 emission).

Row | % inhibition of CsA binding to Cyclophilin A (Cyclophilin A) [%] | Compound | other results
1 | 93.73 | C/C=C/C[C@@H](C)[C@@H](O)[C@H]1C(=O)N[C@@H](CC)C(=O)N(C)CC(=O)N(C)[C@H](C)C(=O)N[C@@H](CC(C)C)C(=O)N(C)[C@@H](C)C(=O)N[C@@H](C)C(=O)N[C@H](C)C(=O)N(C)[C@@H](CC(C)C)C(=O)N(C)[C@@H](CC(C)C)C(=O)N(C)[C@@H](C(C)C)C(=O)N1C [C11] (cyclo([MeBmt][Abu][Sar][dNMeA]L[NMeA]A[dA][NMeL][NMeL][NMeV])) | IC50 (Cyclophilin A): < 2 µM
2 | 90.64 | C/C=C/C[C@@H](C)[C@@H](O)[C@H]1C(=O)N[C@@H](CC)C(=O)N(C)CC(=O)N(C)[C@@H](CC(C)C)C(=O)N[C@@H](CC(C)C)C(=O)N(C)[C@@H](C)C(=O)N[C@@H](C)C(=O)N[C@H](C)C(=O)N(C)[C@@H](CC(C)C)C(=O)N(C)[C@@H](CC(C)C)C(=O)N(C)[C@@H](C(C)C)C(=O)N1C [C14] (cyclo([MeBmt][Abu][Sar][NMeL]L[NMeA]A[dA][NMeL][NMeL][NMeV])) | –
3 | 97.88 | C/C=C/C[C@@H](C)[C@@H](O)[C@H]1C(=O)N[C@@H](CC)C(=O)N(C)CC(=O)N(C)[C@@H](C)C(=O)N[C@@H](C)C(=O)N(C)CC(=O)N[C@@H](C)C(=O)N[C@H](C)C(=O)N(C)[C@@H](CC(C)C)C(=O)N(C)[C@@H](CC(C)C)C(=O)N(C)[C@@H](C(C)C)C(=O)N1C [C18] (cyclo([MeBmt][Abu][Sar][NMeA]A[Sar]A[dA][NMeL][NMeL][NMeV])) | –
4 | 99.63 | C/C=C/C[C@@H](C)[C@@H](O)[C@H]1C(=O)N[C@@H](CC)C(=O)N(C)CC(=O)N(C)[C@@H]([C@@H](C)CC)C(=O)N[C@@H](C(C)C)C(=O)N(C)CC(=O)N[C@@H](C)C(=O)N[C@H](C)C(=O)N(C)[C@@H](CC(C)C)C(=O)N(C)[C@@H](CC(C)C)C(=O)N(C)[C@@H](C(C)C)C(=O)N1C [C25] (cyclo([MeBmt][Abu][Sar][NMeI]V[Sar]A[dA][NMeL][NMeL][NMeV])) | –
5 | 94.73 | C/C=C/C[C@@H](C)[C@@H](O)[C@H]1C(=O)N[C@@H](CC)C(=O)N(C)CC(=O)N(C)[C@H](C)C(=O)N[C@@H](C(C)C)C(=O)N(C)CC(=O)N[C@@H](C)C(=O)N[C@H](C)C(=O)N(C)[C@@H](CC(C)C)C(=O)N(C)[C@@H](CC(C)C)C(=O)N(C)[C@@H](C(C)C)C(=O)N1C [C27] (cyclo([MeBmt][Abu][Sar][dNMeA]V[Sar]A[dA][NMeL][NMeL][NMeV])) | –
6 | 98.94 | C/C=C/C[C@@H](C)[C@@H](O)[C@H]1C(=O)N[C@@H](CC)C(=O)N(C)CC(=O)N(C)[C@@H](Cc2ccccc2)C(=O)N[C@@H](C(C)C)C(=O)N(C)CC(=O)N[C@@H](C)C(=O)N[C@H](C)C(=O)N(C)[C@@H](CC(C)C)C(=O)N(C)[C@@H](CC(C)C)C(=O)N(C)[C@@H](C(C)C)C(=O)N1C [C28] (cyclo([MeBmt][Abu][Sar][NMeF]V[Sar]A[dA][NMeL][NMeL][NMeV])) | –
7 | 98.77 | C/C=C/C[C@@H](C)[C@@H](O)[C@H]1C(=O)N[C@@H](CC)C(=O)N(C)CC(=O)N(C)CC(=O)N[C@@H](C(C)C)C(=O)N(C)CC(=O)N[C@@H](C)C(=O)N[C@H](C)C(=O)N(C)[C@@H](CC(C)C)C(=O)N(C)[C@@H](CC(C)C)C(=O)N(C)[C@@H](C(C)C)C(=O)N1C [C29] (cyclo([MeBmt][Abu][Sar][Sar]V[Sar]A[dA][NMeL][NMeL][NMeV])) | –
8 | 95.71 | C/C=C/C[C@@H](C)[C@@H](O)[C@H]1C(=O)N[C@@H](CC)C(=O)N(C)CC(=O)N(C)[C@H](C)C(=O)N[C@@H](C(C)C)C(=O)N(C)[C@@H](CC(C)C)C(=O)N[C@@H](CC(C)C)C(=O)N[C@H](C)C(=O)N(C)[C@@H](CC(C)C)C(=O)N(C)[C@@H](CC(C)C)C(=O)N(C)[C@@H](C(C)C)C(=O)N1C [C47] (cyclo([MeBmt][Abu][Sar][dNMeA]V[NMeL]L[dA][NMeL][NMeL][NMeV])) | IC50 (Cyclophilin A): < 2 µM
9 | 96.12 | C/C=C/C[C@@H](C)[C@@H](O)[C@H]1C(=O)N[C@@H](CC)C(=O)N(C)CC(=O)N(C)[C@@H]([C@@H](C)O)C(=O)N[C@@H](C(C)(C)C)C(=O)N(C)[C@@H](C)C(=O)N[C@@H](CC(C)C)C(=O)N[C@H](C)C(=O)N(C)[C@@H](CC(C)C)C(=O)N(C)[C@@H](CC(C)C)C(=O)N(C)[C@@H](C(C)C)C(=O)N1C [C75] (cyclo([MeBmt][Abu][Sar][NMeT][Tle][NMeA]L[dA][NMeL][NMeL][NMeV])) | –
10 | 99.56 | C/C=C/C[C@@H](C)[C@@H](O)[C@H]1C(=O)N[C@@H](CC)C(=O)N(C)CC(=O)N(C)[C@@H](C(C)C)C(=O)N[C@@H](C(C)(C)C)C(=O)N(C)[C@@H](C)C(=O)N[C@@H](CC(C)C)C(=O)N[C@H](C)C(=O)N(C)[C@@H](CC(C)C)C(=O)N(C)[C@@H](CC(C)C)C(=O)N(C)[C@@H](C(C)C)C(=O)N1C [C77] (cyclo([MeBmt][Abu][Sar][NMeV][Tle][NMeA]L[dA][NMeL][NMeL][NMeV])) | –
11 | 99.35 | C/C=C/C[C@@H](C)[C@@H](O)[C@H]1C(=O)N[C@@H](CC)C(=O)N(C)CC(=O)N(C)[C@H](C)C(=O)N[C@@H](C(C)C)C(=O)N(C)[C@@H](C)C(=O)N[C@@H](CC(C)C)C(=O)N[C@H](C)C(=O)N(C)[C@@H](CC(C)C)C(=O)N(C)[C@@H](CC(C)C)C(=O)N(C)[C@@H](C(C)C)C(=O)N1C [C83] (cyclo([MeBmt][Abu][Sar][dNMeA]V[NMeA]L[dA][NMeL][NMeL][NMeV])) | –
12 | 95.72 | C/C=C/C[C@@H](C)[C@@H](O)[C@H]1C(=O)N[C@@H](CC)C(=O)N(C)CC(=O)N(C)[C@@H](Cc2ccc(O)cc2)C(=O)N[C@@H](C(C)C)C(=O)N(C)[C@@H](CC(C)C)C(=O)N[C@@H](CC)C(=O)N[C@H](C)C(=O)N(C)[C@@H](CC(C)C)C(=O)N(C)[C@@H](CC(C)C)C(=O)N(C)[C@@H](C(C)C)C(=O)N1C [C100] (cyclo([Abu][Sar][NMeY]V[NMeL][Abu][dA][NMeL][NMeL][NMeV][MeBmt])) | –
13 | 99.30 | C/C=C/C[C@@H](C)[C@@H](O)[C@H]1C(=O)N[C@@H](CC)C(=O)N(C)CC(=O)N(C)[C@@H](CCC)C(=O)N[C@@H](C(C)C)C(=O)N(C)[C@@H](CC(C)C)C(=O)N[C@@H](CC)C(=O)N[C@H](C)C(=O)N(C)[C@@H](CC(C)C)C(=O)N(C)[C@@H](CC(C)C)C(=O)N(C)[C@@H](C(C)C)C(=O)N1C [C102] (cyclo([Abu][Sar][NMeNva]V[NMeL][Abu][dA][NMeL][NMeL][NMeV][MeBmt])) | –
14 | – | CCC(/C=C(\C)C(O)CCC(C)/C=C/C(O)C(C)C1CCC(C)C(O)(C(=O)C(=O)N2CCCCC2C(=O)O)O1)C/C(C)=C/C1=CC(OC)C(O)C=C1 (centres unmarked) [F15] | IC50 (FKBP12): 1.93 µM
15 | – | CC[C@H](Cc1ccccc1)[C@@H]1CCCCCC(=O)[C@@H](C)[C@H](O)[C@@H](C)[C@@H]2CC[C@@H](C)[C@@](O)(O2)C(=O)C(=O)N2CCCC[C@H]2C(=O)O1 [F24, (S)-1-(2-((2R,3R,6S)-6-((2R,3R,4S,6E,9E,11R,12R)-12-benzyl-3,11-dihydroxy-4-methyl-5-oxotetradeca-6,9-dien-2-yl)-2-hydroxy-3-methyltetrahydro-2H-pyran-2-yl)-2-oxoacetyl)piperidine-2-carboxylic acid C-11 lactone] | IC50 (FKBP12; read-out: Binding affinity to FKBP12 (by displacement of FK506)): 0.00021 µM
